We go through one substance from patent US12270064B2, “Peptide for complexing zinc ion, complex thereof and use therefor” (Guangzhou University, priority 2020, dated 2025).

The nature of the test: Complexing rate / complexing ability of zinc ion of soybean peptide fractions. The test is classed as binding. Conditions: HPLC separation of F2, FIG. 2.

No end group written: not given here.

In the case of “KYKRQRW [F21, single peptide component purified by HPLC from F2; also made by solid phase peptide synthesis]”, the “complexing ability with zinc ion, ranking among HPLC fractions” value was “strongest complexing ability with zinc ion”.
